From patent US20120178915A1, “PYRIMIDINE DERIVATIVES AND ANALOGS, PREPARATION METHOD AND USE THEREOF” (priority 2009, published 2012)
≈ marks a conversion by molar mass, not a printed value. Like-named read-outs stand apart in the source and are kept apart here.

Tests used:
Type in all cases: cell-based
Bacillus cereus 2 = experiment: microbe, parasite or virus in culture; settings: 37° C., 24 h, read-out: Minimum Inhibitory Concentration, MIC
Bacillus cereus 246 = experiment: microbe, parasite or virus in culture; settings: 37° C., 24 h, read-out: Minimum Inhibitory Concentration, MIC
Bacillus subtilis 82 = experiment: microbe, parasite or virus in culture; settings: 37° C., 24 h, read-out: Minimum Inhibitory Concentration, MIC
Bacillus subtilis 168 = experiment: microbe, parasite or virus in culture; settings: 37° C., 24 h, read-out: Minimum Inhibitory Concentration, MIC
[1] = test system: Enterococcus faecalis 29212; experiment: microbe, parasite or virus in culture; settings: 37° C., 24 h, read-out: Minimum Inhibitory Concentration, MIC
[2] = test system: Enterococcus faecalis 51299; experiment: microbe, parasite or virus in culture; settings: Enterococcus faecalis, 51299, 24 h, read-out: Minimum Inhibitory Concentration, MIC
[3] = test system: Enterococcus faecalis 19433; experiment: microbe, parasite or virus in culture; settings: 37° C., 24 h, read-out: Minimum Inhibitory Concentration, MIC
[4] = test system: Enterococcus faecalis F2518 (VRE); experiment: microbe, parasite or virus in culture; settings: 24 h, read-out: Minimum Inhibitory Concentration, MIC
[5] = test system: Enterococcus fecal F631 (VRE); experiment: organism not typed; settings: 24 h, read-out: Minimum Inhibitory Concentration, MIC
[6] = test system: Enterococcus faecalis 1513 (VRE); experiment: microbe, parasite or virus in culture; settings: 24 h, read-out: Minimum Inhibitory Concentration, MIC
[7] = test system: Enterococcus faecalis 583 (VRE); experiment: microbe, parasite or virus in culture; settings: 24 h, read-out: Minimum Inhibitory Concentration, MIC
[8] = test system: Staphylococcus aureus 29231; experiment: microbe, parasite or virus in culture; settings: 37° C., 24 h, read-out: Minimum Inhibitory Concentration, MIC
[9] = test system: Staphylococcus aureus 43300 (MRSA); experiment: microbe, parasite or virus in culture; settings: 24 h, read-out: Minimum Inhibitory Concentration, MIC
[10] = test system: Staphylococcus aureus 703 (MRSA); experiment: microbe, parasite or virus in culture; settings: 24 h, read-out: Minimum Inhibitory Concentration, MIC
[11] = test system: Staphylococcus aureus 704 (MRSA); experiment: microbe, parasite or virus in culture; settings: 24 h, read-out: Minimum Inhibitory Concentration, MIC
[12] = test system: Staphylococcus aureus 705 (MRSA); experiment: microbe, parasite or virus in culture; settings: 24 h, read-out: Minimum Inhibitory Concentration, MIC
[13] = test system: Streptococcus pneumoniae 6303 (PRSP); experiment: microbe, parasite or virus in culture; settings: 24 h, read-out: Minimum Inhibitory Concentration, MIC
[14] = test system: Streptococcus pneumoniae 62; experiment: microbe, parasite or virus in culture; settings: 37° C., 24 h, read-out: Minimum Inhibitory Concentration, MIC
[15] = test system: Streptococcus pneumoniae 6301; experiment: microbe, parasite or virus in culture; settings: 37° C., 24 h, read-out: Minimum Inhibitory Concentration, MIC
[16] = test system: Streptococcus pneumoniae M2; experiment: microbe, parasite or virus in culture; settings: 37° C., 24 h, read-out: Minimum Inhibitory Concentration, MIC
Pyogenic Streptococcus = experiment: microbe, parasite or virus in culture; settings: 37° C., 24 h, read-out: Minimum Inhibitory Concentration, MIC
[17] = test system: Streptococcus agalactiae B; experiment: microbe, parasite or virus in culture; settings: 37° C., 24 h, read-out: Minimum Inhibitory Concentration, MIC
green Streptococcus 1009 = experiment: microbe, parasite or virus in culture; settings: 37° C., 24 h, read-out: Minimum Inhibitory Concentration, MIC
[18] = test system: Streptococcus bovis 10035; experiment: microbe, parasite or virus in culture; settings: Streptococcus equinus, 37° C., 24 h, read-out: Minimum Inhibitory Concentration, MIC
Streptococcus 10342 = experiment: MIC broth microdilution; settings: 37° C., 24 h, read-out: Minimum Inhibitory Concentration, MIC
[19] = test system: Streptococcus pneumoniae 10351; experiment: microbe, parasite or virus in culture; settings: 37° C., 24 h, read-out: Minimum Inhibitory Concentration, MIC
Bacillus anthracis 1 = experiment: microbe, parasite or virus in culture; settings: Bacillus anthracis, 1, 24 h, read-out: Minimum Inhibitory Concentration, MIC
[20] = test system: Corynebacterium diphtheriae; experiment: microbe, parasite or virus in culture; settings: 37° C., 24 h, read-out: Minimum Inhibitory Concentration, MIC
Clostridium tetani = experiment: microbe, parasite or virus in culture; settings: 24 h
Clostridium perfringens = experiment: microbe, parasite or virus in culture; settings: 24 h, read-out: Minimum Inhibitory Concentration, MIC
Oral candidiasis = experiment: MIC broth microdilution; settings: Microorganism 32, Oral candidiasis; 37° C., 24 h; read-out: Minimum Inhibitory Concentration, MIC
MIC broth microdilution = settings: Microorganism 33, Dermatophytosis; 37° C., 24 h; read-out: Minimum Inhibitory Concentration, MIC
Gram-positive Bacteria = settings: the majority of Bacillus cereus, Bacillus subtilis and Enterococcus faecalis
[21] = read-out: Minimum Inhibitory Concentration, MIC, Microorganism 29, Clostridium tetani, 37° C.
[22] = read-out: Minimum Inhibitory Concentration, MIC, Microorganism 30, Clostridium tetani (second line of that name), 37° C.

CCc1nn2c(=O)c(C)c(-c3ccc(C(F)(F)F)cc3)[nH]c2c1-c1ccc(Cl)cc1Cl [Compound 23]
MIC (Bacillus cereus 2): 110 µM (≈ 51.5 µg/mL)
MIC (Bacillus cereus 246): 200 µM (≈ 93.4 µg/mL)
MIC (Bacillus subtilis 82): 110 µM (≈ 51.4 µg/mL)
MIC (Bacillus subtilis 168): 101 µM (≈ 47.2 µg/mL)
MIC [1]: 220 µM (≈ 103 µg/mL)
MIC [2]: 130 µM (≈ 60.8 µg/mL)
MIC [3]: 140 µM (≈ 65.4 µg/mL)
MIC [4]: 215 µM (≈ 100 µg/mL)
MIC [5]: 80.5 µM (≈ 37.5 µg/mL)
MIC [6]: 152 µM (≈ 71 µg/mL)
MIC [7]: 132 µM (≈ 61.3 µg/mL)
MIC [8]: 282 µM (≈ 131 µg/mL)
MIC [9]: 120 µM (≈ 56.2 µg/mL)
MIC [10]: 131 µM (≈ 60.9 µg/mL)
MIC [11]: 180 µM (≈ 84 µg/mL)
MIC [12]: 150 µM (≈ 70 µg/mL)
MIC [13]: 231 µM (≈ 108 µg/mL)
MIC [14]: 160 µM (≈ 74.8 µg/mL)
MIC [15]: 170 µM (≈ 79.4 µg/mL)
MIC [16]: 200 µM (≈ 93.4 µg/mL)
MIC (Pyogenic Streptococcus): 231 µM (≈ 108 µg/mL)
MIC [17]: 200 µM (≈ 93.5 µg/mL)
MIC (green Streptococcus 1009): 210 µM (≈ 98.1 µg/mL)
MIC [18]: 153 µM (≈ 71.3 µg/mL)
MIC (Streptococcus 10342): 123 µM (≈ 57.4 µg/mL)
MIC [19]: 155 µM (≈ 72.4 µg/mL)
MIC (Bacillus anthracis 1): 166 µM (≈ 77.6 µg/mL)
MIC [20]: 162 µM (≈ 75.3 µg/mL)
MIC (Clostridium tetani; [21]): 80.2 µM (≈ 37.4 µg/mL)
MIC (Clostridium tetani; [22]): 50.2 µM (≈ 23.4 µg/mL)
MIC (Clostridium perfringens): 30.6 µM (≈ 14.3 µg/mL)
MIC (Oral candidiasis): 122 µM (≈ 56.9 µg/mL)
MIC (MIC broth microdilution): 56.1 µM (≈ 26.2 µg/mL)

O=C1C(c2ccccc2)C(O)=Nc2cc(-c3ccc(C(F)(F)F)cc3)nn21 (stereo not shown) [Compound 42]
inhibition of growth (conclusion from MICs) (Gram-positive Bacteria): significantly inhibited the growth
MIC (Bacillus cereus 2): 0.25 µM (≈ 0.0928 µg/mL)
MIC (Bacillus cereus 246): 0.23 µM (≈ 0.0854 µg/mL)
MIC (Bacillus subtilis 82): 0.02 µM (≈ 0.00743 µg/mL)
MIC (Bacillus subtilis 168): 1.23 µM (≈ 0.457 µg/mL)
MIC [1]: 20.5 µM (≈ 7.61 µg/mL)
MIC [2]: 21.2 µM (≈ 7.87 µg/mL)
MIC [3]: 18.2 µM (≈ 6.76 µg/mL)
MIC [4]: 18.2 µM (≈ 6.76 µg/mL)
MIC [5]: 21.2 µM (≈ 7.87 µg/mL)
MIC [6]: 20.1 µM (≈ 7.46 µg/mL)
MIC [7]: 30.3 µM (≈ 11.3 µg/mL)
MIC [8]: 0.28 µM (≈ 0.104 µg/mL)
MIC [9]: 150 µM (≈ 55.8 µg/mL)
MIC [10]: 172 µM (≈ 63.9 µg/mL)
MIC [11]: 230 µM (≈ 85.5 µg/mL)
MIC [12]: 180 µM (≈ 66.9 µg/mL)
MIC [13]: 203 µM (≈ 75.4 µg/mL)
MIC [14]: 0.25 µM (≈ 0.0928 µg/mL)
MIC [15]: 0.23 µM (≈ 0.0854 µg/mL)
MIC [16]: 0.02 µM (≈ 0.00743 µg/mL)
MIC (Pyogenic Streptococcus): 1.23 µM (≈ 0.457 µg/mL)
MIC [17]: 0.55 µM (≈ 0.204 µg/mL)
MIC (green Streptococcus 1009): 1.25 µM (≈ 0.464 µg/mL)
MIC [18]: 1.28 µM (≈ 0.475 µg/mL)
MIC (Streptococcus 10342): 15.5 µM (≈ 5.76 µg/mL)
MIC [19]: 1.25 µM (≈ 0.464 µg/mL)
MIC (Bacillus anthracis 1): 32.5 µM (≈ 12.1 µg/mL)
MIC [20]: 32 µM (≈ 11.9 µg/mL)
MIC (Clostridium tetani; [21]): 30.2 µM (≈ 11.2 µg/mL)
MIC (Clostridium tetani; [22]): 80.3 µM (≈ 29.8 µg/mL)
MIC (Clostridium perfringens): 2.01 µM (≈ 0.746 µg/mL)
MIC (Oral candidiasis): 21.3 µM (≈ 7.91 µg/mL)
MIC (MIC broth microdilution): 52.1 µM (≈ 19.3 µg/mL)

Nc1nc(-c2ccccc2)nc2c1cnn2-c1ccccc1 [Compound 38]
MIC (Bacillus cereus 2): 124 µM (≈ 35.5 µg/mL)
MIC (Bacillus cereus 246): 154 µM (≈ 44.3 µg/mL)
MIC (Bacillus subtilis 82): 120 µM (≈ 34.5 µg/mL)
MIC (Bacillus subtilis 168): 212 µM (≈ 61.1 µg/mL)
MIC [1]: 145 µM (≈ 41.7 µg/mL)
MIC [2]: 106 µM (≈ 30.6 µg/mL)
MIC [3]: 108 µM (≈ 31.2 µg/mL)
MIC [4]: 116 µM (≈ 33.2 µg/mL)
MIC [5]: 151 µM (≈ 43.4 µg/mL)
MIC [6]: 150 µM (≈ 43.2 µg/mL)
MIC [7]: 160 µM (≈ 46.1 µg/mL)
MIC [8]: 100 µM (≈ 28.8 µg/mL)
MIC [9]: 210 µM (≈ 60.4 µg/mL)
MIC [10]: 215 µM (≈ 61.8 µg/mL)
MIC [11]: 160 µM (≈ 46.1 µg/mL)
MIC [12]: 210 µM (≈ 60.4 µg/mL)
MIC [13]: 125 µM (≈ 35.9 µg/mL)
MIC [14]: 140 µM (≈ 40.4 µg/mL)
MIC [15]: 141 µM (≈ 40.4 µg/mL)
MIC [16]: 156 µM (≈ 44.9 µg/mL)
MIC (Pyogenic Streptococcus): 126 µM (≈ 36.3 µg/mL)
MIC [17]: 105 µM (≈ 30.2 µg/mL)
MIC (green Streptococcus 1009): 101 µM (≈ 29.1 µg/mL)
MIC [18]: 121 µM (≈ 34.9 µg/mL)
MIC (Streptococcus 10342): 131 µM (≈ 37.7 µg/mL)
MIC [19]: 136 µM (≈ 39.2 µg/mL)
MIC (Bacillus anthracis 1): 266 µM (≈ 76.4 µg/mL)
MIC [20]: 150 µM (≈ 43.2 µg/mL)
MIC (Clostridium tetani; [21]): 160 µM (≈ 46.1 µg/mL)
MIC (Clostridium tetani; [22]): 120 µM (≈ 34.6 µg/mL)
MIC (Clostridium perfringens): 125 µM (≈ 35.9 µg/mL)
MIC (Oral candidiasis): 150 µM (≈ 43.2 µg/mL)
MIC (MIC broth microdilution): 121 µM (≈ 34.8 µg/mL)
